Tests used:
Type in all cases: cell-based
[1] = target: T1, human PPARδ (137–441aa) ligand binding domain (Homo sapiens, UniProt Q03181); assay: PPAR transfection (Gal4-LBD luciferase reporter) assay, hPPARδ; details: transfected COS-7 cells, 16 hours, luciferase activity; read-out: hPPAR; EC50 δ (agonist activity)
T1 construct: δ (137–441aa); expressed in transfected cells; host or cells: COS-7
T1 sequence (Q03181 137-441): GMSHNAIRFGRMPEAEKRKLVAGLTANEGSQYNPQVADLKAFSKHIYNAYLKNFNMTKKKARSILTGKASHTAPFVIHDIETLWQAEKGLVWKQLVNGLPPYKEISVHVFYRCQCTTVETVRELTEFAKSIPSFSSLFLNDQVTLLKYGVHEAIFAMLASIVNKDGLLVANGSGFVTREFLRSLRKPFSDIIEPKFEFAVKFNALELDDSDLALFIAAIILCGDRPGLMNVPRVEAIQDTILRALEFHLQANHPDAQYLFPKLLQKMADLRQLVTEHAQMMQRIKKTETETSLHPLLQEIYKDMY
Procedure: (§1) COS-7 cells, which is African green monkey kidney cell line, were used for all transfection assays. Cells were cultured in DMEM medium supplemented with 10% fetal bovine serum, glutamic acid, and an antibiotic under humidified 5% CO2 atmosphere.
(§2) Cells were transfected by lipofectamine reagent with a mixture containing expression plasmid, firefly luciferase reporter plasmid. And a β-galactosidase expression plasmid used as an internal control for transfection efficiency.
(§3) Transiently transfected cells were incubated with DMEM with 0.2% FCS with or without compound. And after 16 hours, luciferase activity and β-galactosidase activity of cell lysate were measured.
(§4) Each compound was dissolved in and diluted with dimethyl sulfoxide (DMSO), and the DMSO concentration of the DMEM medium (containing 0.2% serum) was adjusted to 0.1% upon treatment of cells.

[2] = target: T2, human PPARγ (182–505aa) ligand binding domain (Homo sapiens, UniProt P37231); assay: PPAR transfection (Gal4-LBD luciferase reporter) assay, hPPARγ; details: transfected COS-7 cells, 16 hours, luciferase activity; read-out: hPPAR; EC50 γ (agonist activity)
T2 construct: γ(182–505aa); expressed in transfected cells; host or cells: COS-7
T2 sequence (P37231 182-505): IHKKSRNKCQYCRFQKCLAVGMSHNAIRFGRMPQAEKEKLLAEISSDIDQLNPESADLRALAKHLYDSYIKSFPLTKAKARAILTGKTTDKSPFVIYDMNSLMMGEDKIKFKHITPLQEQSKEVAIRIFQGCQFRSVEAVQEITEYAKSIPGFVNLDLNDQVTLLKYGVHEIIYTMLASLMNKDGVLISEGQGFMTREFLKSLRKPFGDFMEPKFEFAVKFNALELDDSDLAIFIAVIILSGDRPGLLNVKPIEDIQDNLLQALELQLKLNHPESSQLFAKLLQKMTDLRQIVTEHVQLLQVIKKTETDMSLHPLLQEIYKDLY
Procedure: as §1, §2, §3, §4

[3] = target: T3, human PPARα (166–467aa) ligand binding domain (Homo sapiens, UniProt Q07869); assay: PPAR transfection (Gal4-LBD luciferase reporter) assay, hPPARα; details: transfected COS-7 cells, 16 hours, luciferase activity; read-out: hPPAR; EC50 α (agonist activity)
T3 construct: human PPARα (166–467aa); expressed in transfected cells; host or cells: COS-7
T3 sequence (Q07869 166-467): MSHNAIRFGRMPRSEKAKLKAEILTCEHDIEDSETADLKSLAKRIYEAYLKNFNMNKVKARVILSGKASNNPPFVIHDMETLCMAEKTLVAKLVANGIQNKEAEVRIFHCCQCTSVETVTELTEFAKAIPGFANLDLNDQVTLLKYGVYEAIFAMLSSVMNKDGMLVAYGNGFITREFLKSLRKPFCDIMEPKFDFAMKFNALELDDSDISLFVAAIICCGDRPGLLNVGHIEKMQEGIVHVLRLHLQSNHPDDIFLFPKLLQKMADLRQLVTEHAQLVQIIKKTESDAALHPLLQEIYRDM
Procedure: as §1, §2, §3, §4

EC50 [1]	EC50 [2]	EC50 [3]	SMILES
2000 nM	> 10000 nM	4 nM	CC(Oc1cccc(CN(CCCOc2ccc(F)cc2)c2nc3cc4c(cc3o2)OCO4)c1)C(=O)O (stereo not drawn) [Example 169]
2400 nM	400 nM	4 nM	CCC(Oc1cccc(CN(CCOc2ccc(F)cc2)c2nc3ccc(F)cc3o2)c1)C(=O)O (stereo not drawn) [Example 183]
10000 nM	5500 nM	20 nM	CC(Oc1cccc(CN(CCOc2ccc(F)cc2)c2nc3ccccc3o2)c1)C(=O)O (stereo not drawn) [Example 186]
1800 nM	1600 nM	10 nM	COc1ccc(OCCCN(Cc2cccc(OC(C)C(=O)O)c2)c2nc3cc(Cl)ccc3o2)cc1 (stereo not drawn) [Example 204]
1700 nM	1400 nM	10 nM	COc1ccc2oc(N(CCCOc3ccc(Cl)cc3)Cc3cccc(OC(C)C(=O)O)c3)nc2c1 (stereo not drawn) [Example 206]
1800 nM	> 10000 nM	6 nM	CCC(Oc1cccc(CN(CCOc2ccccc2)c2nc3cc(F)ccc3o2)c1)C(=O)O (stereo not drawn) [Example 229]
> 100000 nM	> 10000 nM	13 nM	CCC(Oc1cccc(CN(CCOc2ccc(OS(C)(=O)=O)cc2)c2nc3ccccc3o2)c1)C(=O)O (stereo not drawn) [Example 231]
